The source of these data is publication PMC6803848, “Exploring New Structural Features of the 18β-Glycyrrhetinic Acid Scaffold for the Inhibition of Anaplastic Lymphoma Kinase” (Molecules, 2019).

Structures are written as SMILES. Converted amounts (≈) assume the structure as drawn.

One data set deals with PC-3. As to the kind of experiment: MTT antiproliferative assay, PC-3 cells. It counts as cell-based. The settings on record: Homo sapiens; PC-3, MTT. On the procedure: (§1) All the cells were seeded in 96-well plates and incubated with 5% CO2 at 37 °C for 24 h. Next, the compounds and the reference were dissolved into the culture medium. The final concentration of DMSO in the medium was less than 0.5%. After the cells were treated with compounds for 48 h, the supernatant was removed and 5 mg/mL of a fresh prepared solution of MTT was added to each well and incubated with the cells at 37 °C for another 4 h. The medium was removed, and 100 μL of testing solution was added to each well. After an overnight incubation with 5% CO2 at 37 °C, the absorbance was measured at 490/630 nm by the microplate reader. The IC50 was calculated using GraphPad Prism version 6.0 software (San Diego, CA, USA) from the non-linear curve.
A general note: Formazan colour is commonly taken as a measure of viable cells.

For the next data set, the system named is MCF-7. As to the kind of experiment: MTT antiproliferative assay, MCF-7 cells. It counts as cell-based. The settings on record: Homo sapiens, MCF7; MCF-7, MTT. On the procedure: as §1
Data set [1] relates to HepG2. As to the kind of experiment: MTT antiproliferative assay, HepG2 cells. It counts as cell-based. Particulars: Homo sapiens. As for the experimental part:
as §1

For the next data set, the system named is A549. As to the kind of experiment: MTT antiproliferative assay, A549 cells. The settings on record: Homo sapiens; for inhibition at 2 µg/mL: A549, 2 μg/mL; for inhibition at 2 µg/mL / inhibition at 20 µg/mL: 48 h, MTT, read-out: Antiproliferative activity (growth inhibition, %); for inhibition at 20 µg/mL: A549, 20 μg/mL; for IC50: A549, MTT. It counts as cell-based. On the procedure:
as §1

Another data set concerns HT29. As to the kind of experiment: MTT antiproliferative assay, HT29 cells. Particulars: Homo sapiens, HT-29; for inhibition at 2 µg/mL: HT29, 2 μg/mL; for inhibition at 2 µg/mL / inhibition at 20 µg/mL: 48 h, MTT, read-out: Antiproliferative activity (growth inhibition, %); for inhibition at 20 µg/mL: HT29, 20 μg/mL; for IC50: HT29, MTT. It counts as cell-based. As for the experimental part:
as §1

Another data set deals with Karpas299. As to the kind of experiment: MTT antiproliferative assay, Karpas299 cells. It counts as cell-based. Particulars: Homo sapiens, KARPAS-299. As for the experimental part:
as §1

The test system of the next data set is LO2 cells. The data set is described as follows: MTT cytotoxicity assay, non-tumorigenic liver LO2 cell. The settings on record: 0.064–40.0 μg/mL, 48 h, Figure 8. It counts as cell-based. On the procedure:
Given the mentioned results, the most efficient compound 3j was selected for in depth study, and it was evaluated in different concentrations (0.064–40.0 μg/mL) towards HepG2 cell line and non-tumorigenic liver LO2 cell. A 48 h continuous drug exposure protocol was employed by the MTT cytotoxicity assay.
as §1

In a further data set the target is ALK (Homo sapiens, UniProt Q9UM73). The data set is described as follows: Kinase activity determination (ELISA), ALK. It counts as biochemical. Particulars: purified ALK, 10 μmol/L ATP solution, read-out: Inhibitory effect on ALK activity, IC50. As for the experimental part:
The effects of the compounds on the activities of the tyrosine kinase was determined using enzyme-linked immunosorbent assay (ELISA). Briefly, 20 μg/mL substrate [poly (Glu,Tyr)4:1], 50 μL aliquot of 10 μmol/L ATP solution diluted in kinase buffer (50 mmol/L HEPES pH 7.5, 50 mmol/L MgCl2, 0.5 mmol/L MnCl2, 0.2 mmol/L Na3VO4, and 1 mmol/L DTT) was added to each well; 1 μL of various concentrations of target compound and positive control drug diluted in 1% DMSO (v/v) were then added to each well. 1% DMSO was used as the negative control. After 5–10 min preincubation, the kinase reaction was initiated by the addition of purified ALK proteins diluted in 49 μL of kinase buffer. After 30 min preincubation, the anti-phosphotyrosine monoclonalantibody (100 μL; 1:500, diluted in 5 mg/mL BSA T-PBS) was then added. […] A 100 μL aliquot of a solution containing 0.03% H2O2 and 2 mg/mL o-phenylenediamine in 0.1 mol/L citrate buffer was added. The reaction was terminated by the addition of 50 μL of 2 mol/L H2SO4 as the color changed, and the plate was analyzed using a multi-well spectrophotometer at 490 nm.
(In general: An ELISA detects its analyte on a solid surface through an enzyme-linked reagent.)

The test system of data set [2] is HepG2. As to the kind of experiment: MTT antiproliferative assay, HepG2 cells. Particulars: five concentrations, 24, 48 or 72 h, Figure 7. It counts as cell-based, human.

Sequence of ALK (Q9UM73 19-1620): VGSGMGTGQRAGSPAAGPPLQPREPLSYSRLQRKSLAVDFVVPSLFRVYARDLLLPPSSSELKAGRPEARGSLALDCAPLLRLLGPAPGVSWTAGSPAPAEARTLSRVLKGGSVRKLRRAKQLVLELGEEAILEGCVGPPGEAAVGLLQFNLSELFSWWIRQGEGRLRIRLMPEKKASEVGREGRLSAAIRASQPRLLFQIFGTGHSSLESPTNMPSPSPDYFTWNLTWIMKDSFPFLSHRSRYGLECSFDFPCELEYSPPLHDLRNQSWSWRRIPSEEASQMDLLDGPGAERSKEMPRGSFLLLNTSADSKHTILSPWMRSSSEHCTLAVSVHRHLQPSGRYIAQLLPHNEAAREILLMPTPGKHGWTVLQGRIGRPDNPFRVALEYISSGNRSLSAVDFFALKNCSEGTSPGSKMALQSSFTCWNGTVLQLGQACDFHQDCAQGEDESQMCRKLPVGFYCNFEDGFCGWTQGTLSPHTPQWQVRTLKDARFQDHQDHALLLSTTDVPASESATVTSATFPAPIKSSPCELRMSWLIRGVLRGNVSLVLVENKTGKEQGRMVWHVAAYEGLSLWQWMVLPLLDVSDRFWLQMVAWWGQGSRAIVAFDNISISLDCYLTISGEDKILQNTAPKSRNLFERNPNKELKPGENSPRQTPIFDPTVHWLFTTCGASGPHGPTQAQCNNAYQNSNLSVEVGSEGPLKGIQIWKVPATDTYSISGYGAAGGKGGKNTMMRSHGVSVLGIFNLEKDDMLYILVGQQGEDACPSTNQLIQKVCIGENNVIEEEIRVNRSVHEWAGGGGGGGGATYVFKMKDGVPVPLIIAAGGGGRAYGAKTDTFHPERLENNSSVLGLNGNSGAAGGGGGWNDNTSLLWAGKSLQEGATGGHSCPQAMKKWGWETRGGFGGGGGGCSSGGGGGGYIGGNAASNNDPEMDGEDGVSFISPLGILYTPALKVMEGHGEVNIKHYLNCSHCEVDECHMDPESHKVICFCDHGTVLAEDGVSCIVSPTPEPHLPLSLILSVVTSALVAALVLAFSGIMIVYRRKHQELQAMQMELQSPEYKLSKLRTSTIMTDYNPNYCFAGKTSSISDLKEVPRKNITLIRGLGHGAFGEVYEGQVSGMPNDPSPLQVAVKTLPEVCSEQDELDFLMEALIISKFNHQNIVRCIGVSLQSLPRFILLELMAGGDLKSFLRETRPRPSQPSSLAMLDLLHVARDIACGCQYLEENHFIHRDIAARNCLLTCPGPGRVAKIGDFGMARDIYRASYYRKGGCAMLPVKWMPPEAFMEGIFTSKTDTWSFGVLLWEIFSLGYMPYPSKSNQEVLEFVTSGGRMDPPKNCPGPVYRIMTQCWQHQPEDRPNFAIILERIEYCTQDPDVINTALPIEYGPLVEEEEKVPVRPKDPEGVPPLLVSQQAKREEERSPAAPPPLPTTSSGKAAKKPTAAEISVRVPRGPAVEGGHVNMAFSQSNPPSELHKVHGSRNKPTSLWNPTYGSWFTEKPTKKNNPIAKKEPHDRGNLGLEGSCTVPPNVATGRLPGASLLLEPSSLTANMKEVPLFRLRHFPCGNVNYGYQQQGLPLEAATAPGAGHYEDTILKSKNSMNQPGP

For `CC1(C)C2CC[C@]3(C)[C@H](C(=O)C=C4[C@@H]5C[C@@](C)(C(=O)O)CC[C@]5(C)CC[C@]43C)[C@@]2(C)CC[C@@H]1OC(=O)Nc1ccc(Cl)c(C(F)(F)F)c1` (stereo partly drawn) [3b, 3β-(((4-chloro-3-(trifluoromethyl)phenyl)carbamoyl)oxy)-11-oxo-olean-12-en-30-oic acid], the melting point was 247.8 to 248.5 °C. The molecule further yielded an IC50 with PC-3 of 12.1 µg/mL (≈ 17.4 µM). Moreover, the IC50 in the data set with MCF-7 was 8.92 µg/mL (≈ 12.9 µM). Moreover, inhibition in the data set with HepG2 [1] was half-maximal at 9.25 µg/mL (≈ 13.4 µM) (IC50). In addition, in the data set on A549, the inhibition at 2 µg/mL was found to be 14%, the inhibition at 20 µg/mL amounted to 77.3% and the IC50 is 11.9 µg/mL (≈ 17.2 µM). In the data set with HT29, the inhibition at 2 µg/mL is 14.1%, the inhibition at 20 µg/mL was determined as 87.7% and inhibition was half-maximal at 12 µg/mL (≈ 17.3 µM) (IC50). Moreover, in the data set on Karpas299, the IC50 amounted to 18.6 µg/mL (≈ 26.8 µM).

For `CC1(C)C2CC[C@]3(C)[C@H](C(=O)C=C4[C@@H]5C[C@@](C)(C(=O)O)CC[C@]5(C)CC[C@]43C)[C@@]2(C)CC[C@@H]1OC(=O)Nc1cccc(C(F)(F)F)c1` (stereo partly drawn) [3j, 3β-(((3-(trifluoromethyl)phenyl)carbamoyl)oxy)-11-oxo-olean-12-en-30-oic acid], the melting point lay within 239.1 to 240.7 °C. This molecule also returned an IC50 with PC-3 of 5.96 µg/mL (≈ 9.06 µM). Moreover, in the data set with MCF-7, the IC50 came out at 5.26 µg/mL (≈ 8 µM). Also, in the data set with HepG2 [1], half-maximal inhibition (IC50) required 5.55 µg/mL (≈ 8.44 µM). For the same molecule, in the data set with A549, the inhibition at 2 µg/mL worked out at 17.7%, the inhibition at 20 µg/mL came out at 88.3% and the IC50 is 2.81 µg/mL (≈ 4.27 µM). In the data set with HT29, the inhibition at 2 µg/mL is 24.8%, the inhibition at 20 µg/mL was determined as 99.6% and the IC50 was 3.19 µg/mL (≈ 4.85 µM). Further, the “Toxic action towards LO2 cells” value in the data set with LO2 cells is “did not exhibit significant toxic action”. Besides, the IC50 at ALK came to 121 nM. In the data set on Karpas299, this molecule showed an IC50 of 5.59 µg/mL (≈ 8.5 µM). For the same molecule, the “Inhibition of proliferation of HepG2 cell, concentration and time dependence” value in the data set with HepG2 [2] is recorded as “inhibited the proliferation of HepG2 cell in a significant concentration manner, whereas it did not occur in a time-dependent manner”.

Regarding `CC1(C)C2CC[C@]3(C)[C@H](C(=O)C=C4[C@@H]5C[C@@](C)(C(=O)O)CC[C@]5(C)CC[C@]43C)[C@@]2(C)CC[C@@H]1OC(=O)Nc1ccc(OC(F)(F)F)cc1` (stereo partly drawn) [3n, 3β-(((4-(trifluoromethoxy)phenyl)carbamoyl)oxy)-11-oxo-olean-12-en-30-oic acid], the melting point lay within 256.4 to 258.4 °C. In the data set with PC-3, this molecule gave an IC50 of 13.3 µg/mL (≈ 19.8 µM). The molecule further registered an IC50 in the data set on MCF-7 of 9.3 µg/mL (≈ 13.8 µM). Also, the IC50 in the data set on HepG2 [1] turned out to be 12.6 µg/mL (≈ 18.6 µM). In addition, in the data set with A549, the inhibition at 2 µg/mL worked out at 20.1%, the inhibition at 20 µg/mL came out at 97.1% and the IC50 was determined as 7.42 µg/mL (≈ 11 µM). In the data set on HT29, the inhibition at 2 µg/mL came out at 19%, the inhibition at 20 µg/mL turned out to be 97.7% and it took 11.3 µg/mL (≈ 16.8 µM) to reach half-maximal inhibition (IC50). In addition, the IC50 in the data set on Karpas299 was found to be 26 µg/mL (≈ 38.5 µM).

In turn, `CC1(C)C2CC[C@]3(C)[C@H](C(=O)C=C4[C@@H]5C[C@@](C)(C(=O)O)CC[C@]5(C)CC[C@]43C)[C@@]2(C)CC[C@@H]1OC(=O)Nc1cc(C(F)(F)F)cc(C(F)(F)F)c1` (stereo partly drawn) [3k, 3β-(((3,5-bis (trifluoromethyl)phenyl)carbamoyl)oxy)-11-oxo-olean-12-en-30-oic acid] came in with a melting point of 248.8 to 251.7 °C. Besides, the IC50 in the data set with PC-3 is 10.3 µg/mL (≈ 14.2 µM). This molecule also came in with an IC50 in the data set on MCF-7 of 7 µg/mL (≈ 9.64 µM). For the same molecule, the midpoint of inhibition in the data set on HepG2 [1], the IC50, lay at 11.2 µg/mL (≈ 15.5 µM). Besides, in the data set with A549, the inhibition at 2 µg/mL was determined as 18.8%, the inhibition at 20 µg/mL stood at 88.8% and inhibition was half-maximal at 2.93 µg/mL (≈ 4.04 µM) (IC50). In addition, in the data set with HT29, the inhibition at 2 µg/mL worked out at 10.8%, the inhibition at 20 µg/mL amounted to 94.8% and the IC50 was 6.47 µg/mL (≈ 8.91 µM). The IC50 at ALK was determined as 278 nM. The molecule further yielded an IC50 in the data set with Karpas299 of 9.16 µg/mL (≈ 12.6 µM).

The IC50 is the point on the concentration scale where inhibition reaches its midpoint. Broadly, the inhibition is the share of the control response that was lost under treatment. The term melting point denotes the temperature, or range, at which the solid turns liquid.
